The supplement of paper PMC12463676, “Small-molecule dissolution of stress granules by redox modulation benefits ALS models” (Nature Chemical Biology, 2025)

compound: NC(=O)CCCCC1CCSS1 [lipoamide]; assay: thermal stability z-score vs DMSO; higher = more thermally stabilized by treatment; settings: HeLa; lipoamide concentration 100 µM; arsenate co-treatment: none
Procedure: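 Cellular thermal proteome profiling in HeLa cells. Cells were treated with 100 µM lipoamide for 1 h, with or without 1 mM arsenate for a further 1 h, then heated to ten temperatures (37-66.3 °C), and soluble protein was quantified by TMT mass spectrometry relative to 0.1% DMSO controls. The thermal stability score (sum of log2 fold changes minus the abundance score) was transformed to a z-score; mean of n = 3 experiments.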
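Also: each temperature applied for 3 min, abundance score taken as mean log2 fold change at the two lowest temperatures, z-score obtained by mean subtraction and division by SD.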

UniProt P11216, sequence (P11216 whole entry): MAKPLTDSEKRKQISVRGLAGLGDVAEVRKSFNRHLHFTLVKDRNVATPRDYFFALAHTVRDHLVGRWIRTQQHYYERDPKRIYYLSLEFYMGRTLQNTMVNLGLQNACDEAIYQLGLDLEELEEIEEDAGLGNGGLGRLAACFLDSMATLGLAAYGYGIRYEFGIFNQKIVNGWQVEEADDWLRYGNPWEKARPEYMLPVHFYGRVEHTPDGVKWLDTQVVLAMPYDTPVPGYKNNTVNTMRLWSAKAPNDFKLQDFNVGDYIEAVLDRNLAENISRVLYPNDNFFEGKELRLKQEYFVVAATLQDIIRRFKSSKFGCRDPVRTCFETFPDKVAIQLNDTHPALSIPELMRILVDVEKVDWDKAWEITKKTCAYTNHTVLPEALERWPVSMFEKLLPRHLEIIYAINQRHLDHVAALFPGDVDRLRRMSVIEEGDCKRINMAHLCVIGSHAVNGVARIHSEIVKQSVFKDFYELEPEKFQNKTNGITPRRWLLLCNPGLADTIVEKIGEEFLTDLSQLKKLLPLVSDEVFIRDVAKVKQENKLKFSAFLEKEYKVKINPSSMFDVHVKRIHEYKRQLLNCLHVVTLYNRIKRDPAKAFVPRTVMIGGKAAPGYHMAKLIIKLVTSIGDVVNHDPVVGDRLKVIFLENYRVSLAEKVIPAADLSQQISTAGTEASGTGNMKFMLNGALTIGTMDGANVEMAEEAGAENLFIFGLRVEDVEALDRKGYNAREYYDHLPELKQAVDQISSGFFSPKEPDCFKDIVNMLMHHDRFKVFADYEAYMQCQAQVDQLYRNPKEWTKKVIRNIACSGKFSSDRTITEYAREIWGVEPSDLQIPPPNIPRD
UniProt Q14527, sequence (Q14527 whole entry): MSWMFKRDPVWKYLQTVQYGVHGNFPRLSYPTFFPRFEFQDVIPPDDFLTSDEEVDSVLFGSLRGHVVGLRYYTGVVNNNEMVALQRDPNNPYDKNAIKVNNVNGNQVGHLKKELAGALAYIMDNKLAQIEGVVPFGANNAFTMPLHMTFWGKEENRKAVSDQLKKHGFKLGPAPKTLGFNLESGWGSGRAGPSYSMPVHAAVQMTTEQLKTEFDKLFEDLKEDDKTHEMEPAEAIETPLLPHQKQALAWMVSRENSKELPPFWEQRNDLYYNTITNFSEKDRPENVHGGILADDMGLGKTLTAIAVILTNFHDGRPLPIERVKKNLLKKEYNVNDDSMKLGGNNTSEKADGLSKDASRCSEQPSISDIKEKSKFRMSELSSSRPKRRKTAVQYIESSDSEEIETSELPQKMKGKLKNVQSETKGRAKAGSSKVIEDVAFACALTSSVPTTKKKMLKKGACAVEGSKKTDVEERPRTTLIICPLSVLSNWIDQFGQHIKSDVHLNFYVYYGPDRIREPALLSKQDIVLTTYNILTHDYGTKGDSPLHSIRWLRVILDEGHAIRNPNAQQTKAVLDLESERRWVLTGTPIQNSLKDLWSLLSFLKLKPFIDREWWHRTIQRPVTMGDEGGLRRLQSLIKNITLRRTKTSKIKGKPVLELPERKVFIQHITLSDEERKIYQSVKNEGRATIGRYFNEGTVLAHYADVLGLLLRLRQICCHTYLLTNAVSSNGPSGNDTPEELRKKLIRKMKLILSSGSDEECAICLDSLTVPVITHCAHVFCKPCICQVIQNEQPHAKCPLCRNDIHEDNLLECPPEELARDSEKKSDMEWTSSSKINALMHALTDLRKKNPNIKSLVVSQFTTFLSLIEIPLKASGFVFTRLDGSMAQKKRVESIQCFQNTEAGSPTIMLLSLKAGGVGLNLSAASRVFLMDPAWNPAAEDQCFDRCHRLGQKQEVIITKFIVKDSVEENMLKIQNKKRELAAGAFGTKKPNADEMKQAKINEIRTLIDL
UniProt Q8NBS9, sequence (Q8NBS9 whole entry): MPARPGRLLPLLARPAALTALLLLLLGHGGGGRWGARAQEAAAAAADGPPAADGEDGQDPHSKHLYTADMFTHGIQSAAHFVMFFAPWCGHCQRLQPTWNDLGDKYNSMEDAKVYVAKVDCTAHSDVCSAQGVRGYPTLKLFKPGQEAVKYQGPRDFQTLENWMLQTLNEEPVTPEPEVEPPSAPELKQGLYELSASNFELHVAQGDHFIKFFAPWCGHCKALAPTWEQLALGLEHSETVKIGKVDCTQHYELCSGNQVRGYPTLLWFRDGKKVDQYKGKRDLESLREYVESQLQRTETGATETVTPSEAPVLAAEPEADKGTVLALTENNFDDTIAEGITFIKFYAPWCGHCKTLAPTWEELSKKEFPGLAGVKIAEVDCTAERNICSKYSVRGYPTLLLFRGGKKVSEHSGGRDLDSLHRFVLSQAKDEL
UniProt O60476, sequence (O60476 whole entry): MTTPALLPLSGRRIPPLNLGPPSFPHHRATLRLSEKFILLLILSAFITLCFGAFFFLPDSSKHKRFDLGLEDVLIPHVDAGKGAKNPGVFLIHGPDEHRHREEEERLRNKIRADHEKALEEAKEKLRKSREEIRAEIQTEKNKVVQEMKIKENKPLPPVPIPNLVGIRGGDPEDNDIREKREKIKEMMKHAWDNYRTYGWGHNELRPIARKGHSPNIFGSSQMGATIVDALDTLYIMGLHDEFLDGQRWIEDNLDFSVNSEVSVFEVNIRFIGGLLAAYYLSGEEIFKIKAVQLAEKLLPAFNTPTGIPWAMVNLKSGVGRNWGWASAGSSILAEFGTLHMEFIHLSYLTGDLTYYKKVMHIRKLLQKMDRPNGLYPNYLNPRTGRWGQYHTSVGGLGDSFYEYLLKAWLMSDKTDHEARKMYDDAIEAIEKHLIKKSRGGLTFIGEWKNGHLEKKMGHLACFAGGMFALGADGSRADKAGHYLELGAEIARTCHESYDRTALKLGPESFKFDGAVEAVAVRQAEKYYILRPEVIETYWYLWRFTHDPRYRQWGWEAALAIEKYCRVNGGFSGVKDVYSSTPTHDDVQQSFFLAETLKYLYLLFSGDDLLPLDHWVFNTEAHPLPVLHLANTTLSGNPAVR
UniProt P13196, sequence (P13196 whole entry): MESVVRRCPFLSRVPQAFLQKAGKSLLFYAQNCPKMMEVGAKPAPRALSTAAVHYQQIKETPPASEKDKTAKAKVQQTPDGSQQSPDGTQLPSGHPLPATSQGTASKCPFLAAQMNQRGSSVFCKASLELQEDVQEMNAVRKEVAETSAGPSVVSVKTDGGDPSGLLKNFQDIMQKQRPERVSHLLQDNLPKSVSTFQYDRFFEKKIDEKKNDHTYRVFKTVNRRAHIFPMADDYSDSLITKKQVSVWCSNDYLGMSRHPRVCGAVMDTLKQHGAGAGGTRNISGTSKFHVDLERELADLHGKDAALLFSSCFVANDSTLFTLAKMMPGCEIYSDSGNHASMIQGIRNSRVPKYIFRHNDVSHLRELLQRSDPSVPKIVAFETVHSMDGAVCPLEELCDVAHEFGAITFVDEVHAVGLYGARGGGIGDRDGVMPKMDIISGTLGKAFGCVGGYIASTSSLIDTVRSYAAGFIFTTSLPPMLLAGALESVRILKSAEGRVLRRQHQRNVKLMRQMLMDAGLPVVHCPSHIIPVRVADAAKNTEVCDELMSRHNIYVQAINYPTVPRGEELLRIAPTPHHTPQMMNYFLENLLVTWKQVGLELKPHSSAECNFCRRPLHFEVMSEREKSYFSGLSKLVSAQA
UniProt Q01415, sequence (Q01415 whole entry): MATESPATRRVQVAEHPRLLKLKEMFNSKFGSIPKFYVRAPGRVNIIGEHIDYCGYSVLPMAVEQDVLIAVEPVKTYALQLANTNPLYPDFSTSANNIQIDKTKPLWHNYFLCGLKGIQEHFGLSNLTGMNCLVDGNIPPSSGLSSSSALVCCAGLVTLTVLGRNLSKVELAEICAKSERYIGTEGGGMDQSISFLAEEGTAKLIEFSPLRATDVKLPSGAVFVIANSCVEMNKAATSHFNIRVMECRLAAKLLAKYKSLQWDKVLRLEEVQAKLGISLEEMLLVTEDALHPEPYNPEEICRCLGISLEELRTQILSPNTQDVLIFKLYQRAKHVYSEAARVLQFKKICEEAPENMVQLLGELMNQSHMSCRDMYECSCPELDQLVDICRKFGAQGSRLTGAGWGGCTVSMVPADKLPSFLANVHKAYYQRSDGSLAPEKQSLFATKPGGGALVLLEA
UniProt Q9NSU2, sequence (Q9NSU2 whole entry): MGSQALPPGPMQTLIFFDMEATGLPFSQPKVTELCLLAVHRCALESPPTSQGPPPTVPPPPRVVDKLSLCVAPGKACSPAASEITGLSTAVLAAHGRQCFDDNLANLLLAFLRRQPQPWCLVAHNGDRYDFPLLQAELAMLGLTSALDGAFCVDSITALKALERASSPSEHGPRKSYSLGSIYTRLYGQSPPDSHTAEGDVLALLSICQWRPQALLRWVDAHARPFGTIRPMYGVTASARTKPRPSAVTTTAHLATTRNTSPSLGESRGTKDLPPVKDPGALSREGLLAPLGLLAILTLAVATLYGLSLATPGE
UniProt O94925, sequence (O94925 whole entry): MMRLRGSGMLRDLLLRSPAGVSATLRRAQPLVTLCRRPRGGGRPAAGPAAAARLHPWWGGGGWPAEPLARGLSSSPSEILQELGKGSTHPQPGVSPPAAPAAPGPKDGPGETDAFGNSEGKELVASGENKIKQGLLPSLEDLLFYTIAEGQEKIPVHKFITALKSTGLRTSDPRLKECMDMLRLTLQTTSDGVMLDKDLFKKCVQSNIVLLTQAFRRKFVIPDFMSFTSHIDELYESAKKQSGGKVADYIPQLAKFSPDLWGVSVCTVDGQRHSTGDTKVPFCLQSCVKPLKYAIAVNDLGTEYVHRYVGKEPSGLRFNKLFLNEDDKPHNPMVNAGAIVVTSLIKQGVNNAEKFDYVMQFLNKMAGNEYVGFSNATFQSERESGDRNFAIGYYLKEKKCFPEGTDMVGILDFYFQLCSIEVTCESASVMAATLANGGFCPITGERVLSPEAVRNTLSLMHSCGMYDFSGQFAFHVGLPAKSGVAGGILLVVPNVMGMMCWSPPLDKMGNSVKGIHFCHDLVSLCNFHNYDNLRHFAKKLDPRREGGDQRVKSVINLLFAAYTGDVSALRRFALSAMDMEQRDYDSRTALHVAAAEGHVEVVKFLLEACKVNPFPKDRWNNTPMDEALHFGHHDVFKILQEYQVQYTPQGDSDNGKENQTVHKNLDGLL

Target | thermal stability z-score
GLS (UniProt O94925) | -0.00934
LIMS1 (UniProt P48059) | -0.589
KIFC3 (UniProt Q9BVG8) | -0.358
GALK2 (UniProt Q01415) | -0.155
NRF1 (UniProt Q16656) | -0.0693
RAB18 (UniProt Q9NP72) | 0.352
FAT1 (UniProt Q14517) | -1.48
UniProt G3V599 | -0.663
GATSL2 (UniProt A6NHX0) | -1.44
PRRC2A (UniProt P48634) | 0.205
MAN1A2 (UniProt O60476) | -0.498
RPS12 (UniProt P25398) | 0.884
GPBP1L1 (UniProt Q9HC44) | -0.326
FAM206A (UniProt Q9NX38) | -0.233
ATF7IP (UniProt Q6VMQ6) | 0.0822
PARL (UniProt Q9H300) | -0.733
GPS1 (UniProt Q13098) | 0.892
ARHGAP21 (UniProt Q5T5U3) | -0.749

Target | thermal stability z-score
ALAS1 (UniProt P13196) | -0.0767
SDCBP (UniProt O00560) | 0.425
GNB1 (UniProt P62873) | 0.0629
TREX1 (UniProt Q9NSU2) | -0.0932
SLC3A2 (UniProt P08195) | 0.49
LRWD1 (UniProt Q9UFC0) | -0.0419
KLHL13 (UniProt Q9P2N7) | -0.242
DDA1 (UniProt Q9BW61) | -0.211
GTF3C6 (UniProt Q969F1) | -0.0491
ANKFY1 (UniProt Q9P2R3) | 0.106
TXNDC5 (UniProt Q8NBS9) | -1.86
PYGB (UniProt P11216) | 0.0472
FBXO38 (UniProt Q6PIJ6) | -0.115
HLTF (UniProt Q14527) | -0.0608
ADO (UniProt Q96SZ5) | 1.31
SLC12A2 (UniProt P55011) | -0.195
TRMT61A (UniProt Q96FX7) | -1.08
GSN (UniProt P06396) | -0.257

compound: O=[As]([O-])(O)O.[K+] [potassium arsenate]; assay: as above; settings: HeLa; arsenate concentration 1 mM
Procedure: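 Cellular thermal proteome profiling in HeLa cells treated with 1 mM arsenate for 1 h (DMSO pretreatment), heated to ten temperatures (37-66.3 °C). Soluble protein was quantified by TMT mass spectrometry relative to DMSO controls; the thermal stability score was transformed to a z-score; mean of n = 3 experiments.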

Target | thermal stability z-score
CTH (UniProt P32929) | 0.596
TK2 (UniProt O00142) | -0.137
PURB (UniProt Q96QR8) | 0.364
TMEM192 (UniProt Q8IY95) | -0.137
DMD (UniProt P11532) | -0.176
HAGH (UniProt Q16775) | 0.158
MAPRE1 (UniProt Q15691) | 0.154
TRAPPC1 (UniProt Q9Y5R8) | 0.484
RAB23 (UniProt Q9ULC3) | -0.626
PATL1 (UniProt Q86TB9) | -0.0875
SLC46A1 (UniProt Q96NT5) | -1.24
WDR81 (UniProt Q562E7) | 0.105
EML4 (UniProt Q9HC35) | 1.33
PFDN1 (UniProt O60925) | 0.744
MFSD4B (UniProt Q5TF39) | -0.129
CORO1B (UniProt Q9BR76) | -0.66
CLINT1 (UniProt Q14677) | 1.08
CDK7 (UniProt P50613) | -0.0106
CLIC1 (UniProt O00299) | -0.144
FUT11 (UniProt Q495W5) | 0.00651
AGR2 (UniProt O95994) | -0.355
NDUFS4 (UniProt O43181) | 0.201
GRAMD1B (UniProt Q3KR37) | -0.00294
STT3B (UniProt Q8TCJ2) | 0.646

Target | thermal stability z-score
DHRS4 (UniProt Q9BTZ2) | 0.0753
TNS1 (UniProt Q9HBL0) | -0.162
S100A11 (UniProt P31949) | 0.639
SF3B1 (UniProt O75533) | -0.873
DRAM2 (UniProt Q6UX65) | 1.26
LRRC41 (UniProt Q15345) | -0.546
SNX5 (UniProt Q9Y5X3) | -0.458
POLR3F (UniProt Q9H1D9) | -1.32
KIF1BP (UniProt Q96EK5) | 0.587
ARID2 (UniProt Q68CP9) | -0.234
FKBP14 (UniProt Q9NWM8) | -0.591
GLS (UniProt O94925) | 0.351
LIMS1 (UniProt P48059) | -2.08
KIFC3 (UniProt Q9BVG8) | -0.23
GALK2 (UniProt Q01415) | -0.778
NRF1 (UniProt Q16656) | 0.311
RAB18 (UniProt Q9NP72) | 0.672
FAT1 (UniProt Q14517) | 0.0899
UniProt G3V599 | 0.593
GATSL2 (UniProt A6NHX0) | -0.242
PRRC2A (UniProt P48634) | -0.13
MAN1A2 (UniProt O60476) | -0.352
RPS12 (UniProt P25398) | -0.949
GPBP1L1 (UniProt Q9HC44) | 0.365

Target | thermal stability z-score
FAM206A (UniProt Q9NX38) | 0.249
ATF7IP (UniProt Q6VMQ6) | -0.304
PARL (UniProt Q9H300) | 0.57
GPS1 (UniProt Q13098) | 0.904
ARHGAP21 (UniProt Q5T5U3) | -1.3
ALAS1 (UniProt P13196) | -0.0697
SDCBP (UniProt O00560) | 0.364
GNB1 (UniProt P62873) | -0.776
TREX1 (UniProt Q9NSU2) | -2.07
SLC3A2 (UniProt P08195) | 0.0559
LRWD1 (UniProt Q9UFC0) | -0.324
KLHL13 (UniProt Q9P2N7) | 0.825
DDA1 (UniProt Q9BW61) | 0.665
GTF3C6 (UniProt Q969F1) | -0.175
ANKFY1 (UniProt Q9P2R3) | 0.477
TXNDC5 (UniProt Q8NBS9) | 0.0646
PYGB (UniProt P11216) | -1.24
FBXO38 (UniProt Q6PIJ6) | -0.981
HLTF (UniProt Q14527) | -0.308
ADO (UniProt Q96SZ5) | -0.401
SLC12A2 (UniProt P55011) | -0.72
TRMT61A (UniProt Q96FX7) | -0.0703
GSN (UniProt P06396) | 0.0381
